For test [1], the target named is T1, hSTING-HAQ haplotype (Homo sapiens, UniProt Q86WV6, G230A/H232R/R293Q/R71H).
T1 construct: host or cells: THP-1-Dual
The test is described as follows: THP-1-Dual reporter assay (endogenous hSTING-HAQ). Conditions: THP-1-Dual cells (hSTING-HAQ), 24 hours. It counts as cell-based. Background: In a reporter assay the amount or activity of a reporter protein is the signal.

For test [2], the target named is hSTING H232 (Homo sapiens, UniProt Q86WV6). The test is described as follows: Surface plasmon resonance, hSTING H232. Format: binding. Conditions: read-out: hSTING H232 SPR (Kd). In general terms: SPR reads the build-up and loss of mass on a sensor chip optically.
Test [3] deals with NCI-H292 cells. The test is described as follows: Immunogenic cell death markers (HMGB1 release, surface calreticulin). It counts as cell-based, human. Conditions: 48 hours. The method, then: Immunogenic cell death elicited by the TROP2 ADC, iSAC, and exatecan were measured by cell surface translocate of calreticulin and release of HMGB1 in the cell culture supernatant. Briefly, TROP2 positive cell line NCI-H292 were seeded into a 96-well flat bottom plate 4 hours prior to the initialization of the assay. Test articles were formulated at a 2× starting concentration in cell culture medium, and samples were serial diluted (1:3) under sterile conditions and added onto the cells in duplicates. After incubation at 37° C. in a CO2 incubator for 48 hours, the cell supernatant was collected for measuring HMGB1 and the adherent cells were collected for calreticulin expression on the cell surface.
HMGB1 released in the supernatant was assessed via sandwich ELISA using mouse anti-human HMGB1 clone 2F6 (Sigma-Aldrich) as the capture, polyclonal rabbit anti-human HMGB1 (Abcam) as secondary, and polyclonal goat anti-rabbit IgG HRP as the detection antibody. The HMGB1 concentrations in the cell culture medium were calculated based a standard curve built on commercially available recombinant human HMGB1 (R&D Systems).
NCI-H292 cells were detached using Accutase (Innovative Cell Technologies) and viability was accessed using a 1:500 dilution of Zombie NIR viability dye. […] Surface calreticulin measures on the live cells were gathered using an Attune NXT Flow Cytometer (ThermoFisher Scientific) to obtain median fluorescence intensity values. All data were fitted with non-linear regression analysis, using log(agonist) vs. response, variable slope, 4 parameter fit equation using GraphPad Prism.

pEC50, pKd: −log10 of the molar value. Bounds are passed on as bounds.

A word on the EC50: it is the concentration giving half of the maximal effect. A high value points to a less potent agent. As a reminder, the pKd is −log10 of the Kd, conventionally taken in molar units. As a reminder, the pEC50 is the negative decadic logarithm of the EC50, by convention in mol/L.

hSTING H232, sequence (Q86WV6 whole entry): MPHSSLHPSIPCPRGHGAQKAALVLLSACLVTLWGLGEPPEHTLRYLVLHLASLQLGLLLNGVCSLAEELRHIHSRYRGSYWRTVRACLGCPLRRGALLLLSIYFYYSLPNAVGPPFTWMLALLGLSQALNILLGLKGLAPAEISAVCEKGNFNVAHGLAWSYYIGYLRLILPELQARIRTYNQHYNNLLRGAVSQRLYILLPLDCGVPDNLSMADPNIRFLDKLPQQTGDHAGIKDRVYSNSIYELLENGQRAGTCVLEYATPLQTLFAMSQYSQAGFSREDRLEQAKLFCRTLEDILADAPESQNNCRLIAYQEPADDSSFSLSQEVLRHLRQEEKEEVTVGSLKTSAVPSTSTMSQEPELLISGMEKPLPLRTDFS
T1 sequence (Q86WV6 whole entry R71H/G230A/H232R/R293Q): as the sequence (Q86WV6 whole entry) above, with R71H, G230A, H232R, R293Q counted along it

`CCn1nc(C)cc1C(=O)Nc1nc2cc(C(N)=O)cc(OC)c2n1C/C=C/Cn1c(NC(=O)c2cc(C)nn2CC)nc2cc(C(N)=O)cc(OCCCN3CCC(c4nnc5n4CCNC5)CC3)c21` [Compound 4, 1-[(E)-4-[5-carbamoyl-2-[(2-ethyl-5-methyl-pyrazole-3-carbonyl)amino]-7-[3-[4-(5,6,7,8-tetrahydro-[1,2,4]triazolo[4,3-a]pyrazin-3-yl)-1-piperidyl]propoxy]benzimidazol-1-yl]but-2-enyl]-2-[(2-ethyl-5-methyl-pyrazole-3-carbonyl)amino]-7-methoxy-benzimidazole-5-carboxamide; 2,2,2-trifluoroacetic acid]: the EC50 in test [1] is 50 to 150 nM. Moreover, the pKd in test [2] is not below 7.70. In addition, the “HMGB-1 Release Span” value in test [3] is reported as 11 ng/mL. Further, in test [3] (Homo sapiens, sandwich ELISA, read-out: HMGB-1 Release EC50), the negative-log EC50 (pEC50) was 8.13.

Source of the values: patent US20250108048A1, “STING AGONIST COMPOUNDS AND CONJUGATES” (SUTRO BIOPHARMA, INC., priority 2023, published 2025).
